Source: US9539248B2, “Agent for ameliorating chronic obstructive pulmonary disease” (LTT BIO-PHARMA CO., LTD., priority 2012, dated 2017)

What was measured:
[1] = test system: poor lung function induced by porcine pancreatic elastase; assay: Test Example 3: FEV0.05/FVC in poor lung function induced by porcine pancreatic elastase, compared with muscarinic antagonists; type: in vivo, ICR mice; conditions: 38 μg/kg by airway administration once daily for 11 days, measured on Day 14 (FIG. 10)
Protocol: Measurement of a ratio of forced expiratory volume (FEV) in the first 0.05 seconds to forced vital capacity (FVC) (FEV0.05/FVC) was performed by using the above-mentioned computer-controlled small animal ventilator connected to a negative pressure reservoir (SCIREQ Scientific Respiratory Equipment Inc.). FEV0.05/PVC was determined by using the FlexiVent software. As with Test Example 1, 4 to 6 week old ICR mice were treated with porcine pancreatic elastase. […] On Day 14, FEV0.05/FVC was measured by the method described in the above-mentioned “Measurement of FEV0.05/FVC.”

[2] = test system: porcine pancreatic elastase pretreatment-induced pulmonary emphysema and altered lung function; assay: Test Example 2: porcine pancreatic elastase pretreatment-induced pulmonary emphysema and altered lung function; type: in vivo, ICR mice
Protocol: 100 μg of porcine pancreatic elastase per mouse and different doses of mepenzolate were dissolved in 30 μL of phosphate buffered saline (PBS) per mouse and this solution was injected into the airway of a mouse anesthetized with chloral hydrate by a micropipette.
(§1) Lung function and airway resistance were measured by using a computer-controlled small animal ventilator (FlexiVent, SCIREQ Scientific Respiratory Equipment Inc.).
A mouse was anesthetized with chloral hydrate, a tracheostomy was performed, and an 8 mm metal tube was inserted into the trachea. Ventilation was performed on the mouse with a volume of 8.7 mL/kg, a positive end-expiratory pressure of 2 to 3 cmH2O, and a respiratory rate of 150 times/min.
Total respiratory system elastance was measured by a snap shot technique and tissue elastance was measured by a forced oscillation technique.
After 4 to 6 week old ICR mice were used and treated with porcine pancreatic elastase by a similar method to that in Test Example 1, different doses (μg/kg) of mepenzolate were administered to these mice via the airway once daily from 14 days to 20 days after the treatment. Then, the mice were euthanized, sections of the lung tissues were prepared and dyed with H&E, and stained images were obtained by electron microscopy.
Subsequently, the airspace size in the cells in the obtained H&E stained images was measured as a mean linear intercept.
Then, on Day 21, the total respiratory system elastance and the tissue elastance were measured by a similar method to that in Test Example 1.

[3] = test system: methacoline-induced airway constriction; assay: Test Example 9: rectal administration in methacoline-induced airway constriction; type: in vivo, mice; conditions: different doses (mg/kg) (FIG. 25)
Protocol: Increase in airway resistance induced by methacoline was measured. 4 to 6 week old ICR mice received 1 mg/mL methacoline by nebulization over 20 seconds and this was repeated five times. After administration of methacoline was completed, the airway resistance was measured by a snap shot technique. All the data were analyzed by using FlexiVent software. Different doses (mg/kg) of mepenzolate were administered intrarectally and airway resistance induced by methacoline was measured by a similar method to that in Test Example 4.

[4] = test system: porcine pancreatic elastase-induced inflammation; assay: Test Example 5: porcine pancreatic elastase-induced inflammation (BALF cell counts and cytokines); type: in vivo, ICR mice
Protocol: Different doses of mepenzolate were administered to 4 to 6 week old ICR mice once via the airway. 100 μg of porcine pancreatic elastase per mouse was administered one hour after administration of mepenzolate. Bronchoalveolar lavage fluid (BALF) was collected from the lung 24 hours after administration of porcine pancreatic elastase and a total cell count and a neutrophil count were measured. Furthermore, the total number of TNF-α, MIP-2, MCP-1, or KC in the bronchoalveolar lavage fluid when 38 μg/kg of mepenzolate was administered via the airway was measured by an ELISA method.

[5] = test system: porcine pancreatic elastase-induced COPD model; assay: Test Example 8: rectal administration in porcine pancreatic elastase-induced COPD model, lung damage (H&E, MLI, elastance, FEV0.05/FVC); type: in vivo, ICR mice; conditions: intrarectal once daily for 14 days, different doses (mg/kg) (FIG. 22 to 24)
Protocol: (§2) 100 μg of porcine pancreatic elastase per mouse was administered to 4 to 6 week old ICR mice once via the airway to induce damage in the lung. Furthermore, different doses (mg/kg) of mepenzolate were administered to the mice intrarectally once daily for 14 days. After administration, sections of the lung tissues were excised. Subsequently, the sections were subjected to H&E dyeing, MLI measurement, and elastance measurement performed by a similar method to that in Test Example 1.

[6] = test system: porcine pancreatic elastase-induced pulmonary emphysema and altered lung function; assay: Test Example 7: oral administration in porcine pancreatic elastase-induced pulmonary emphysema and altered lung function; type: in vivo, ICR mice; conditions: oral administration once daily for 14 days, different doses (mg/kg) (FIG. 18 to 20)
Protocol: as §2, with “airway. Then,” for “airway to induce damage in the lung. Furthermore,”, “orally” for “intrarectally”

[7] = test system: porcine pancreatic elastase-induced pulmonary emphysema and altered lung function; assay: Test Example 1: porcine pancreatic elastase-induced pulmonary emphysema and altered lung function, mepenzolate via the airway or by inhalation; type: in vivo, ICR mice; conditions: for damage in the alveolar wall: H&E sections; for mean linear intercept (MLI): PPE 100 μg per mouse
Protocol: 100 μg of porcine pancreatic elastase per mouse and different doses of mepenzolate were dissolved in 30 μL of phosphate buffered saline (PBS) per mouse and this solution was injected into the airway of a mouse anesthetized with chloral hydrate by a micropipette. A mouse was placed in a chamber. Then, the whole amount of a mepenzolate solution prepared by dissolving mepenzolate in 10 mL of PBS was sprayed onto the mouse over 30 minutes by using an ultrasonic nebulizer (NE-U07, manufactured by OMRON Corporation) that was connected to the chamber. Lung function and airway resistance were measured by using a computer-controlled small animal ventilator (FlexiVent, SCIREQ Scientific Respiratory Equipment Inc.). A mouse was anesthetized with chloral hydrate, a tracheostomy was performed, and an 8 mm metal tube was inserted into the trachea. Ventilation was performed on the mouse with a volume of 8.7 mL/kg, a positive end-expiratory pressure of 2 to 3 cmH2O, and a respiratory rate of 150 times/min. Total respiratory system elastance was measured by a snap shot technique and tissue elastance was measured by a forced oscillation technique. Data analysis was conducted by using FlexiVent software. A lung damage model for pulmonary emphysema and altered lung function was generated by administering 100 μg of porcine pancreatic elastase per mouse to 4 to 6 week old ICR mice once via the airway. Different doses of mepenzolate were administered to these mice via the airway (μg/kg) or by inhalation (μg/chamber) once daily for 14 days (Day 0 to Day 13) and the mice were euthanized on Day 14. Sections of the lung tissues were prepared and dyed with H&E (hematoxylin-eosin staining), and stained images were obtained by electron microscopy. The airspace size in the cells in the H&E stained images obtained above was measured as a mean linear intercept (MLI; μm). Then, on Day 14, the total respiratory system elastance and the tissue elastance were measured by the method described in the above-mentioned “Measurement of Elastance.”

[8] = test system: pulmonary emphysema and altered lung function resulting from smoking; assay: Test Example 6: pulmonary emphysema and altered lung function resulting from smoking; type: in vivo, DBA/2 mice; conditions: cigarette smoke 6 weeks
Protocol: Three-times-a-day exposure to smoking and once-a-day coadministration of 38 μg/kg of mepenzolate were performed on 5 week old DBA/2 mice, 5 days a week (Monday to Friday) for 6 weeks. The mice were subjected to only smoking during the final week. The mice were subjected to smoking by the method described below. 15 to 20 mice were placed in a 45 L chamber and the chamber was connected to a cigarette smoke generator. Commercially available unfiltered cigarette that produced 28 mg of tar and 2.3 mg of nicotine were used. The mice were exposed to smoke of one cigarette over 35 minutes, which was repeated three times a day for five days a week. This was continued for 6 weeks. The mice were made to inhale the cigarette smoke 15 times over a 5-minute period. Mepenzolate was administered to the mice by inhalation. After smoking was completed, the mice were euthanized, sections of the lung tissues were prepared and dyed with H&E, and stained images were obtained by electron microscopy. The airspace size in the cells in the H&E stained images obtained above was measured as a mean linear intercept. Then, the total respiratory system elastance and the tissue elastance were measured by a similar method to that in Test Example 1.

[9] = test system: methacholine-induced airway constriction; assay: Test Example 4: methacholine-induced airway constriction, airway administration; type: in vivo, ICR mice
Protocol: as §1
Increase in airway resistance induced by methacoline was measured. 4 to 6 week old ICR mice received 1 mg/mL methacoline by nebulization over 20 seconds and this was repeated five times. After administration of methacoline was completed, the airway resistance was measured by a snap shot technique. All the data were analyzed by using FlexiVent software.
Different doses (μg/kg) of mepenzolate were administered to the mice via the airway, and one hour after administration, the mice received five exposures to nebulized methacoline, and then, the airway resistance for each dose was measured.
Furthermore, mepenzolate was administered to the mice at a dose of 38 μg/kg. Then, the mice received five exposures to nebulized methacoline at 6 hours, 24 hours, and 48 hours after drug administration. The airway resistance for each time length was measured.

[10] = test system: porcine pancreatic elastase-induced COPD model; assay: Test Example 8: rectal administration in porcine pancreatic elastase-induced COPD model, inflammatory cells in alveolar lavage fluid; type: in vivo, ICR mice; conditions: intrarectal once daily, lavage fluid collected 3 days later (FIG. 21)
Protocol: 100 μg of porcine pancreatic elastase per mouse was administered to 4 to 6 week old ICR mice once via the airway to induce damage in the lung. Different concentrations of mepenzolate were administered intrarectally once daily. The alveolar lavage fluid was collected 3 days later and the total cell count was counted. The neutrophil count was also counted by dyeing the cells by a Diff-Quick technique.

[11] = airway administration, Day 21 (FIG. 9)
[12] = 38 μg/kg via the airway, ELISA (FIG. 14)
[13] = different doses once via the airway 1 h before PPE, BALF 24 hours after PPE (FIG. 13)
[14] = airway administration, Day 14 (FIG. 3)
[15] = inhalation administration, Day 14 (FIG. 6)
[16] = 38 μg/kg once a day by inhalation (FIG. 17)

Q: `CN1CCN(CC(=O)N2c3ccccc3C(=O)Nc3cccnc32)CC1` [pirenzepine] was tested. Which “recovering effect of vital capacity represented by FEV0.05/FVC reduced by PPE administration” value [1] did it give?
A: Its value is “did not show a significant recovering effect”.

Q: How did the “damage in the alveolar wall” value ([2]; airway administration once daily from 14 to 20 days after PPE treatment) turn out when `C[N+]1(C)CCC[C@@H](OC(=O)C(O)(c2ccccc2)c2ccccc2)C1` (racemic) [mepenzolate, mepenzolate bromide] was run?
A: The value was “improved dose-dependently”.

Q: And the mean linear intercept ([2]; airway administration once daily from 14 to 20 days after PPE treatment (FIG. 7, 8))?
A: Its mean linear intercept is “suppressed”.

Q: What about the tissue elastance [2, 11] of the same molecule?
A: Its tissue elastance is “significantly improved”.

Q: What about the “total respiratory system elastance” value [2, 11] of the same molecule?
A: Its value is “significantly improved”.

Q: And the “airway resistance induced by methacoline” value [3]?
A: The value was “showed an excellent effect”.

Q: And the “KC in the BALF” value [4, 12]?
A: The value was “decreased”.

Q: And the “MCP-1 in the BALF” value [4, 12]?
A: The value was “decreased”.

Q: What about the “MIP-2 in the BALF” value [4, 12] of the same molecule?
A: Its value is “decreased”.

Q: What about the “TNF-α in the BALF” value [4, 12] of the same molecule?
A: Its value is “decreased”.

Q: What about the “neutrophil count of the BALF” value [4, 13] of the same molecule?
A: Its value is “decreased dependently on the dose”.

Q: What about the “total cell count of the BALF” value [4, 13] of the same molecule?
A: The value was “decreased dependently on the dose”.

Q: And the “damage in the lung induced by elastase (H&E, MLI, elastance, FEV0.05/FVC)” value [5]?
A: The value was “improved damage in the lung induced by elastase”.

Q: And the “damage in the lung (H&E, MLI, elastance)” value [6]?
A: Its value is “improved damage in the lung”.

Q: And the “damage in the alveolar wall” value ([7]; airway administration once daily for 14 days)?
A: The value was “improved”.

Q: And the “mean linear intercept (MLI)” value ([7]; airway administration once daily for 14 days, Day 14 (FIG. 1, 2))?
A: The value was “suppressed”.

Q: What about the tissue elastance [7, 14] of the same molecule?
A: The tissue elastance was “significantly improved”.

Q: And the “total respiratory system elastance” value [7, 14]?
A: The value was “significantly improved”.

Q: What about the “damage in the alveolar wall” value ([7]; inhalation administration once daily for 14 days) of the same molecule?
A: Its value is “improved”.

Q: And the “mean linear intercept (MLI)” value ([7]; inhalation administration once daily for 14 days, Day 14 (FIG. 4, 5))?
A: The value was “suppressed”.

Q: And the tissue elastance [7, 15]?
A: The tissue elastance was “significantly improved”.

Q: And the “total respiratory system elastance” value [7, 15]?
A: Its value is “significantly improved”.

Q: What about the “suppressive effect on mean linear intercept, inhalation compared with airway administration” value ([7]; inhalation vs airway administration) of the same molecule?
A: Its value is “inhalation administration had a slightly better suppressive effect”.

Q: And the “recovering effect of vital capacity represented by FEV0.05/FVC reduced by PPE administration” value [1]?
A: The value was “effectively exhibited a recovering effect”.

Q: And the “damage in the alveolar wall” value ([8]; 38 μg/kg once a day by inhalation)?
A: Its value is “improved”.

Q: What about the mean linear intercept ([8]; 38 μg/kg once a day by inhalation (FIG. 15, 16)) of the same molecule?
A: The mean linear intercept was “suppressed”.

Q: What about the tissue elastance [8, 16] of the same molecule?
A: Its tissue elastance is “significantly improved”.

Q: And the “total respiratory system elastance” value [8, 16]?
A: The value was “significantly improved”.

Q: And the “airway resistance induced by methacoline, duration of effect” value ([9]; 38 μg/kg, methacoline at 6, 24 and 48 hours after administration (FIG. 12))?
A: Its value is “reduced the airway resistance even 24 hours after administration”.

Q: What about the “airway resistance induced by methacoline” value ([9]; airway administration at 0.04, 0.08, 0.38, 3.8 and 38.0 μg/kg, one hour after administration (FIG. 11)) of the same molecule?
A: Its value is “reduced the airway resistance almost dose-dependently”.

Q: And the “inflammatory cells (total cell count, neutrophil count) in alveolar lavage fluid” value [10]?
A: Its value is “decrease in the inflammatory cells was observed”.
